Data set [1] relates to human leukocytes (basophils). Kind of data set: Inhibition of histamine release from human leukocytes (basophils), Procedure A. The class given is cell-based. Particulars: Leukocyte, 1 h, rabbit anti-human IgE, 37° C., 60 minutes, (d) No response detected at highest dose indicated, read-out: In Vitro Inhibition of Histamine Release IC50, Procedure A. As to the method: A. Procedure for Determining Inhibition of Histamine Release from Human Leukocytes (Basophils) 1. Separation of Leukocytes: A modification of the method of L. Lichtenstein and A. Osler, J. Exp. Med. 120, 507 (1964) is used. Heparinized human blood (80-100 ml) is mixed with 20 ml of saline (0.2%) containing 0.6 gm of dextrose and 1.2 gm dextran in propylene centrifuge tubes. The mixture is kept at ambient temperature for 60-90 minutes to allow the separation of erythrocytes from the platelet-leukocyte-rich supernate. The supernate is removed and centrifuged for 8 minutes at 110×g in cold. The leukocyte pellet is washed twice with Tris buffer and finally suspended in 150-180 ml Tris-ACM buffer at 1-2×10^6 cells/ml. 2. Reaction Mixture: The reaction is carried out in 12×75 mm plastic tubes at a total volume of […]. The reaction medium includes 0.05 ml rabbit anti-human IgE (the antigen), 0.2 ml of the test compound in water at concentrations ranging from 10-100 μM, and 0.1 ml of the leukocyte suspension. The reaction mixture is incubated in a 37° C. shaking water bath for 60 minutes. Upon completion of the reaction, the tubes are centrifuged and the supernatants collected. The protein is removed from the supernatants by precipitation with 0.2 ml of 8% perchloric acid. 3. Histamine Assay: Histamine release is measured by the automated fluorometric method of W. Siraganian and W. Hook in Chapter 102 of the Manual of Clinical Immunology, 2nd Edition, edited by R. Rose and H. Friedman, published by the American Society for Microbiology, Washington, D.C. 1980. Percent inhibition is calculated as follows: [formula] The concentration which causes a 50 percent inhibition (IC50) of histamine release is interpolated from a plot of percent inhibition versus logarithm of drug concentration.

Data set [2] deals with rat peritoneal mast cells. Kind of data set: Inhibition of histamine release from rat peritoneal mast cells, Procedure B. The class given is cell-based. To be noted: Mast cell, 1 h, sheep anti-rat IgE or ovalbumin, 37° C., 60 minutes, (d) No response detected at highest dose indicated, read-out: In Vitro Inhibition of Histamine Release IC50, Procedure B. As to the method:
B. Procedure for Determining Inhibition of Histamine Release from Rat Peritoneal Mast Cells 1. Harvest of Peritoneal Mast Cells: After the rats are sacrificed with ether, 20 ml of Minimum Essential Medium (MEM) containing 20 units/ml heparin is injected into the peritoneum. The abdomen is massaged for one minute and the lavage fluid collected. The peritoneal cells are centrifuged at 1800 rpm for 8 minutes in cold. After two washes with Tris A buffer, the cells are resuspended in Tris ACM buffer at 2-4×10^6 cells/ml. 2. Reaction Mixture: The reaction is carried out in 12×75 mm plastic tubes at a total volume of 1.25 ml. The reaction mixture includes 0.5 ml (10-1000 μg) sheep anti-rat IgE or ovalbumin, 0.2 ml of the test compound in water at concentrations ranging from 10-1000 μM, […] phosphatidylserine solution (20-60 μg to each tube), and 0.5 ml of cell suspension. The reaction mixture is incubated in a 37° C. shaking water bath for 60 minutes. Upon completion of the reaction, the tubes are centrifuged and the supernatants collected. The protein is removed from the supernatants by precipitation with 0.2 ml of 8% perchloric acid. 3. Histamine Assay: Histamine release is measured by the automated fluorometric method of Siraganian, supra. The concentration which causes a 50% inhibition (IC50) of histamine release is computed as in Part A.

Data set [3] has as its system guinea pig basophils. Kind of data set: Inhibition of histamine release from guinea pig basophils, Procedure C. The class given is cell-based. To be noted: Cavia porcellus, 1 h, ovalbumin-sensitized, 37° C., 60 minutes, read-out: In Vitro Inhibition of Histamine Release IC50, Procedure C. As to the method: C. Procedure for Determining Inhibition of Histamine Release from Guinea Pig Basophils 1. In Vivo Sensitization: Male Hartley guinea pigs (200-300 gms) are immunized on day 0 with two 0.05 ml intradermal injections of 200 μg ovalbumin. Sensitized basophils are available between days 13-25 post-sensitization. This mode of sensitization favors IgE response. 2. Separation of Leukocytes: The method of Lett-Brown et al., Int. Arch. Allergy, Appl. Immun. 64, 241 (1981) is used. Animals are anesthetized with ether and are bled via cardiac puncture with plastic syringes containing sufficient EDTA to provide a final concentration of 10 mM. One part of 3% gelatin in saline at 37° C. is mixed with two parts of blood in a 16×150 mm tube. The cells are allowed to sediment at a 30° angle for 45 minutes in a 37° C. water bath. The leukocyte-rich plasma is collected and centrifuged at 150×g for 30 minutes at room temperature. The pelleted cells are washed in Hepes-buffered saline (HG) containing 4 mM EDTA and resuspended in Hepes-buffered saline containing Mg^++ and Ca^++ (HGCM) at 4-5×10^6 cells/ml. 3. Reaction Mixture: The reaction is carried out in 12×75 mm plastic tubes and a total volume of 1.2 ml which includes 0.5 ml of antigen, 0.2 ml of drug solution at concentrations ranging from 10-1000 μM and 0.5 ml of prewashed cell suspension. The reaction mixture is incubated in a 37° C. shaking water bath for 60 minutes. Upon completion of the reaction, the tubes are centrifuged and the supernatants collected. The protein is removed from the supernatants by precipitation with 0.2 ml of 8% perchloric acid. 4. Histamine Assay: Histamine release is measured by the automated fluorometric method of Siraganian, supra. The concentration which causes a 50 percent inhibition of Histamine release is computed as in Part A.

Data set [4] in a line: Solubility limit. Particulars: pH 7.

Where a name gives a salt, the structure may show the parent alone.

Take `Clc1ccc(CN2CCCN(CCCN3CCCN(Cc4ccc(Cl)cc4)CC3)CC2)cc1` [Example 28, 1,3-Bis[4-(4-chlorobenzyl)-1-homopiperazinyl]propane tetrahydrochloride]: the IC50 (usually the concentration that inhibits the measured activity by half) worked out at 6 µM in data set [1], 9 µM in data set [2] and 2.3 µM in data set [3].
For the compound `O=C(CC(=O)N1CCN(Cc2ccc(Cl)cc2)CC1)N1CCN(Cc2ccc(Cl)cc2)CC1` [Example 15, 1,3-Bis[4-(4-chlorobenzyl)-1-piperazinyl]-1,3-dioxopropane dihydrochloride monohydrate], the results for the IC50 in data set [1], in data set [2] and in data set [3] were 17 µM, 10 µM and 49 µM, respectively.
As to `Cl.Cl.Cl.Cl.Clc1ccc(CCCN2CCN(CCCN3CCN(CCCc4ccc(Cl)cc4)CC3)CC2)cc1.O` [Example 24, 1,3 -Bis[4-(3-{4-chlorophenyl}propyl)-1-piperazinyl]propane tetrahydrochloride monohydrate], the IC50 was found to be 2 µM in data set [1], 2 µM in data set [2] and 8.9 µM in data set [3]. The solubility (commonly the dissolved amount per volume that the medium holds) in data set [4] worked out at 1000 µg/mL.
Consider `OC(CN1CCN(Cc2ccc(Cl)cc2)CC1)CN1CCN(Cc2ccc(Cl)cc2)CC1` [Example 2, 1,3-Bis[4-(4-chlorobenzyl)-1-piperazinyl]-2-hydroxypropane], for which the IC50 in data set [1] came to 12 µM; in data set [2], 80 µM; in data set [3], 23 µM.

These data come from US4725597A, “Bis(piperazinyl or homopiperazinyl)alkanes” (Boehringer Ingelheim Ltd., priority 1984, dated 1988).
